Common to all, as to type: cell-based
One assay addresses T1, human TLR7 (Homo sapiens, UniProt Q9NYK1).
T1 construct: host or cells: HEK-Blue cells
T1 sequence (Q9NYK1 27-1049): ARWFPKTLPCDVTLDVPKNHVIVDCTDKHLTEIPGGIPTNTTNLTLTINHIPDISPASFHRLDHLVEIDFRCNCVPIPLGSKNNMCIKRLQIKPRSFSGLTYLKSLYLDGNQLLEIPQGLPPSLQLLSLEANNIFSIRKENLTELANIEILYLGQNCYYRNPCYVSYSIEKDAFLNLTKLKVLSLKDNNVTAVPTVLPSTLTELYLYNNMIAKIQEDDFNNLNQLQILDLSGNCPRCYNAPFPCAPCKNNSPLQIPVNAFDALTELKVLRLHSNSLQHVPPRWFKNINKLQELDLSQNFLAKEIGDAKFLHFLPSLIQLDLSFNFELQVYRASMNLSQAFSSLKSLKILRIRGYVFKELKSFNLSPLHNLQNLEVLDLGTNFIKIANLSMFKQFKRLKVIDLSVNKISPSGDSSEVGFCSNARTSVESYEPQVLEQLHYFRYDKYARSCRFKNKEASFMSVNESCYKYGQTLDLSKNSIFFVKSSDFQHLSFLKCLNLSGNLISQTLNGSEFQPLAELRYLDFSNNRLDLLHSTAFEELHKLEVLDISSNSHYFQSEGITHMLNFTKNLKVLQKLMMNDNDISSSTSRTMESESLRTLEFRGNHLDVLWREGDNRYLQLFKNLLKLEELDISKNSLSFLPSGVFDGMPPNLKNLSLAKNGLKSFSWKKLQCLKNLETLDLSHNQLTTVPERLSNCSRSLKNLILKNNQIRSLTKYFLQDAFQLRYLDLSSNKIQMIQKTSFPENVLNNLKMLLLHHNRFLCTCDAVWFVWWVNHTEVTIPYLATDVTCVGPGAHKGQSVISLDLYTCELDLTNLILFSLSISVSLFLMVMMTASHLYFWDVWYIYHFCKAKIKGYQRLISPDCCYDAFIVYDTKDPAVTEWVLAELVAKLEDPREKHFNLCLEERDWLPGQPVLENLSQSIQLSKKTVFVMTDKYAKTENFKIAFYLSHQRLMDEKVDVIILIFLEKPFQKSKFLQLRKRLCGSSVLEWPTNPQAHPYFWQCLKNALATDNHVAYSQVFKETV
Description: TLR7 inhibition reporter assay (HEK-Blue cells, SEAP reporter, gardiquimod stimulation). The conditions noted are these: HEK-Blue cells overexpressing human TLR7, SEAP reporter, gardiquimod 7.5 μM; read-out: TLR7 IC50. An outline of the steps: (§1)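 Human TLR7/8/9 HEK-Blue reporter lines; dose range 0.05 nM–50 μM; 30 min RT preincubation; stimulus gardiquimod 7.5 μM / R848 15.9 μM / ODN2006 5 nM respectively; 22 h, 37 °C; SEAP detected colorimetrically.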
Background: Reporter assays use an easily measured gene product as a stand-in for the process of interest.

The next assay addresses T2, human TLR8 (Homo sapiens, UniProt Q9NR97).
T2 construct: host or cells: HEK-Blue cells
T2 sequence (Q9NR97 27-1041): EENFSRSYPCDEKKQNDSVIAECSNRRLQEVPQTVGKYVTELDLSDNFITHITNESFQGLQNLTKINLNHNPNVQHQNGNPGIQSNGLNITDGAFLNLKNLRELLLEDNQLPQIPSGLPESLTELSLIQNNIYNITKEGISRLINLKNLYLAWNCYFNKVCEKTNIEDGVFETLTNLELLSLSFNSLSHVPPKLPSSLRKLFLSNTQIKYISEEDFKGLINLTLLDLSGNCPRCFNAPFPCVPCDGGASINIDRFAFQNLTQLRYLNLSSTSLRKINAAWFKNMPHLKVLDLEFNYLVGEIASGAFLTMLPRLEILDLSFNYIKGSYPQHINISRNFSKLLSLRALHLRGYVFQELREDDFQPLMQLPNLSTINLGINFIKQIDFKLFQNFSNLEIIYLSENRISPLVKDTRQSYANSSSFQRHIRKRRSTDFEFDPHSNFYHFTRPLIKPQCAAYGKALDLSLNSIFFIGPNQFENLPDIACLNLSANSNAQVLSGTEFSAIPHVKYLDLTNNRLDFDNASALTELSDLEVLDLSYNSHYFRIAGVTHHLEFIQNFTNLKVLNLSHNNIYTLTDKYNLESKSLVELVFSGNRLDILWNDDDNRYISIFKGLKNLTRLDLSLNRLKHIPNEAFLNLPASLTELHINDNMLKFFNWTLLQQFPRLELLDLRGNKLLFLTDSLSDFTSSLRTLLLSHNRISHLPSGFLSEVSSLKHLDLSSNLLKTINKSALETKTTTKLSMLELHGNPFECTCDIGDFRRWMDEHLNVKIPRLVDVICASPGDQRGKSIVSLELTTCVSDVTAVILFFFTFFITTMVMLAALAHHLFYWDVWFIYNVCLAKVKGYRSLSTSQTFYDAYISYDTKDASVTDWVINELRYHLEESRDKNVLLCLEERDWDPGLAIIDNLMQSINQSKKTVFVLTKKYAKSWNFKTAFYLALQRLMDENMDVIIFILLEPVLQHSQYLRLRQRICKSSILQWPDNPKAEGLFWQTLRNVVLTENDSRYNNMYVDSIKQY
Briefly: TLR8 inhibition reporter assay (HEK-Blue cells, SEAP reporter, R848 stimulation). The conditions noted are these: HEK-Blue cells overexpressing human TLR8, SEAP reporter, R848 15.9 μM; read-out: TLR8 IC50. An outline of the steps:
as §1

For a further assay, the target named is T3, human TLR9 (Homo sapiens, UniProt Q9NR96).
T3 construct: host or cells: HEK-Blue cells
T3 sequence (Q9NR96 26-1032): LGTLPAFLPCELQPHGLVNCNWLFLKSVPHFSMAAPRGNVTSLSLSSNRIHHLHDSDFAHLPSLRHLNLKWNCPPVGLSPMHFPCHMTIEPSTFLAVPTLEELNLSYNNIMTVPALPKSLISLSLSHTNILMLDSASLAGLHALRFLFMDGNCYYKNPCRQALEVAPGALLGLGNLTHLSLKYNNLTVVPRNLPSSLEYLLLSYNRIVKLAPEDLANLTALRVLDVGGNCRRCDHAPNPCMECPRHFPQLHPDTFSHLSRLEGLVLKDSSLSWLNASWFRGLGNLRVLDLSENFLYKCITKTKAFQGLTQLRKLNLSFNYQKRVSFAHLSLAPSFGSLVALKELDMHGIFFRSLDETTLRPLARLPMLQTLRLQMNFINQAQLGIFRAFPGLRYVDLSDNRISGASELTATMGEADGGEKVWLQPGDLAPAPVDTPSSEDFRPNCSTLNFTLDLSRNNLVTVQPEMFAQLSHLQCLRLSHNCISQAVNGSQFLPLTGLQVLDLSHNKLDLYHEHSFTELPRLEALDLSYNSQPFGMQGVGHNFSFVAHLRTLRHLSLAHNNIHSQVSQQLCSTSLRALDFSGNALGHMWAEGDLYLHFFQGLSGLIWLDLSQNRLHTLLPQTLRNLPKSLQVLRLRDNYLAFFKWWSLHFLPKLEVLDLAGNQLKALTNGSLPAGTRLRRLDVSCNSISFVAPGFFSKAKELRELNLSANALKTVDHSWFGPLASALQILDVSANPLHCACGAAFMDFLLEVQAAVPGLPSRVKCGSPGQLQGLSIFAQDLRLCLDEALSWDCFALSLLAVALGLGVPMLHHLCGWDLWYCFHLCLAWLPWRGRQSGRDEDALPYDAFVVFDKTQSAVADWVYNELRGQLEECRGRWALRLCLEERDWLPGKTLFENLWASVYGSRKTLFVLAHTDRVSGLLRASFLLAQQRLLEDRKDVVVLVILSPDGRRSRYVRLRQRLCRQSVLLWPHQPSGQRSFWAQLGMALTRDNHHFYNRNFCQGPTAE
Briefly: TLR9 inhibition reporter assay (HEK-Blue cells, SEAP reporter, ODN2006 stimulation). The conditions noted are these: HEK-Blue cells overexpressing human TLR9, SEAP reporter, ODN2006 5 nM. A digest of the protocol: as §1

Each structure is given as a SMILES string.

Regarding `Cc1c(-c2[nH]c3sc(N4C[C@@H](C)NC[C@@H]4C)nc3c2C(C)C)cn2ncnc2c1C` [Example 309, 5-(7,8-dimethyl-[1,2,4]triazolo[1,5-a]pyridin-6-yl)-2-((2S,5R)-2,5-dimethylpiperazin-1-yl)-6-isopropyl-4H-pyrrolo[3,2-d]thiazole], the IC50 (commonly the concentration that inhibits the measured activity by half) at human TLR7 amounted to 6.67 nM; on human TLR8, 4.19 nM; on human TLR9 it was 14400 nM.

Turning to `Cc1c(-c2[nH]c3sc(N4CCNC[C@@H]4C)nc3c2C(C)C)cn2ncnc2c1C` [Example 310, (S)-5-(7,8-dimethyl-[1,2,4]triazolo[1,5-a]pyridin-6-yl)-6-isopropyl-2-(2-methylpiperazin-1-yl)-4H-pyrrolo[3,2-d]thiazole], the figures for the IC50 at human TLR7, at human TLR8 and against human TLR9 were 1.45 nM, 0.43 nM and 19300 nM, respectively.

On to `Cc1c(-c2[nH]c3sc(N4CCN(CC5CCOCC5)C[C@H]4C)nc3c2C(C)C)cn2ncnc2c1C` [Example 317, (R)-5-(7,8-dimethyl-[1,2,4]triazolo[1,5-a]pyridin-6-yl)-6-isopropyl-2-(2-methyl-4-((tetrahydro-2H-pyran-4-yl)methyl)piperazin-1-yl)-4H-pyrrolo[3,2-d]thiazole], for which the IC50 at human TLR7 came out at 9.47 nM; at human TLR8, 4.22 nM; against human TLR9, 44400 nM.

As for `Cc1c(-c2[nH]c3sc(N4CCN(C5CCOCC5)C[C@H]4C)nc3c2C(C)C)cn2ncnc2c1C` [Example 318, (R)-5-(7,8-dimethyl-[1,2,4]triazolo[1,5-a]pyridin-6-yl)-6-isopropyl-2-(2-methyl-4-(tetrahydro-2H-pyran-4-yl)piperazin-1-yl)-4H-pyrrolo[3,2-d] thiazole], the IC50 on human TLR7 came to 6.23 nM; on human TLR8, 0.83 nM; against human TLR9, 21600 nM.

On to `Cc1c(-c2[nH]c3sc(N4CCN(C)C[C@H]4C)nc3c2C(C)C)cn2ncnc2c1C` [Example 319, (R)-5-(7,8-dimethyl-[1,2,4]triazolo[1,5-a]pyridin-6-yl)-2-(2,4-dimethylpiperazin-1-yl)-6-isopropyl-4H-pyrrolo[3,2-d]thiazole], for which the values for the half-inhibitory concentration (IC50) at human TLR7, at human TLR8 and at human TLR9 were 3.84 nM, 0.53 nM and 19400 nM, respectively.

`CCN1CCN(c2nc3c(C(C)C)c(-c4cn5ncnc5c(C)c4C)[nH]c3s2)[C@H](C)C1` [Example 320, (R)-5-(7,8-dimethyl-[1,2,4]triazolo[1,5-a]pyridin-6-yl)-2-(4-ethyl-2-methylpiperazin-1-yl)-6-isopropyl-4H-pyrrolo[3,2-d]thiazole]: the IC50 is 4.38 nM on human TLR7, 1.3 nM on human TLR8 and 21900 nM against human TLR9.

As to `Cc1c(-c2[nH]c3sc(N4CCN(C5CCC5)C[C@H]4C)nc3c2C(C)C)cn2ncnc2c1C` [Example 323], the half-maximal inhibitory concentration (IC50) at human TLR7 is 22.4 nM; at human TLR8 it was 3.86 nM; against human TLR9 it was more than 50000 nM.

As for `Cc1c(-c2[nH]c3sc(N4CCN(C5CCN(C(C)C)CC5)C[C@H]4C)nc3c2C(C)C)cn2ncnc2c1C` [Example 324], the IC50 at human TLR7 was 6.96 nM; at human TLR8 it was 2.26 nM; against human TLR9, 6240 nM.

Regarding `Cc1c(-c2[nH]c3sc(N4CCN(CC(C)(C)O)C[C@H]4C)nc3c2C(C)C)cn2ncnc2c1C` [Example 325, (R)-1-(4-(5-(7,8-dimethyl-[1,2,4]triazolo[1,5-a]pyridin-6-yl)-6-isopropyl-4H-pyrrolo[3,2-d]thiazol-2-yl)-3-methylpiperazin-1-yl)-2-methylpropan-2-ol], the 50% inhibitory concentration (IC50) on human TLR7 is 19 nM; at human TLR8 it was 0.19 nM; at human TLR9 it was more than 50000 nM.

Consider `CNCC(=O)N1CCN(c2nc3c(C(C)C)c(-c4cn5ncnc5c(C)c4C)[nH]c3s2)[C@H](C)C1` [Example 326, (R)-1-(4-(5-(7,8-dimethyl-[1,2,4]triazolo[1,5-a]pyridin-6-yl)-6-isopropyl-4H-pyrrolo[3,2-d]thiazol-2-yl)-3-methylpiperazin-1-yl)-2-(methylamino)ethan-1-one], for which the IC50 at human TLR7 was 5.42 nM; at human TLR8, 7.97 nM; against human TLR9 it was 17600 nM.

As for `Cc1c(-c2[nH]c3sc(N4CCN(C(=O)CN(C)C)C[C@H]4C)nc3c2C(C)C)cn2ncnc2c1C` [Example 327, (R)-1-(4-(5-(7,8-dimethyl-[1,2,4]triazolo[1,5-a]pyridin-6-yl)-6-isopropyl-4H-pyrrolo[3,2-d]thiazol-2-yl)-3-methylpiperazin-1-yl)-2-(dimethylamino)ethan-1-one], the figures for the half-maximal inhibitory concentration (IC50) on human TLR7, at human TLR8 and at human TLR9 were 7.5 nM, 7.11 nM and 15800 nM, respectively.

As for `Cc1c(-c2[nH]c3sc(N4C[C@@H](C)N(C5COC5)C[C@@H]4C)nc3c2C(C)C)cn2ncnc2c1C` [Example 328, 2-((2S,5R)-2,5-dimethyl-4-(oxetan-3-yl)piperazin-1-yl)-5-(7,8-dimethyl-[1,2,4]triazolo[1,5-a]pyridin-6-yl)-6-isopropyl-4H-pyrrolo[3,2-d]thiazole], the figures for the IC50 at human TLR7, at human TLR8 and against human TLR9 were 12.9 nM, 12.8 nM and 18800 nM, respectively.

The record behind these values is patent US20230139171A1 (SITA Information Networking Computing UK Limited, priority 2019, published 2023).
